Values of other authors, collected in publication PMC6311893, “Computational prediction of plasma protein binding of cyclic peptides from small molecule experimental data using sparse modeling techniques” (BMC Bioinformatics, 2018).
Positions of bridges follow the written chain, without caps; N, C: chain ends. Non-standard residues stand in square brackets, D forms with d. Residues, ends and D or L forms follow the SMILES beside them. *: point of attachment. Octanoyl(6-Me) = CCC(C)CCCCC(=O)*; Dab = NCC[CH](N)C(=O)O

test system: plasma protein; conditions: fraction bound to plasma protein; small molecule dataset, sheet 1-SM (Set Dte = test, Dtr = training); ref Ingle et al.; cited from earlier work

Molecule	PPB (fb)
Cc1ncc([N+](=O)[O-])n1CCO [Metronidazole]	0.07
CCN[C@H]1C[C@H](C)S(=O)(=O)c2sc(S(N)(=O)=O)cc21 [dorzolamide]	0.3
C[C@](N)(Cc1ccc(O)c(O)c1)C(=O)O [Methyldopa]	0.13
CC(C)Nc1cccnc1N1CCN(C(=O)c2cc3cc(NS(C)(=O)=O)ccc3[nH]2)CC1 [delavirdine]	0.98
CCCN(CCC)S(=O)(=O)c1ccc(C(=O)O)cc1 [Probenecid]	0.88
O=P(O)(O)OC(Cn1cncn1)(Cn1cncn1)c1ccc(F)cc1F [Fosfluconazole]	0.96
COc1ccc(-n2cc(C(=O)O)c(=O)c3cc(F)c(N4CCNCC4)cc32)cc1 [5c(p-OCH3)]	0.31
CC(C)(C#N)c1cc(Cn2cncn2)cc(C(C)(C)C#N)c1 [anastrozole]	0.44
NS(=O)(=O)c1cc2c(cc1Cl)N=CNS2(=O)=O [chlorothiazide]	0.7
NC(C(=O)NC1C(=O)N2C(C(=O)O)=C(Cl)CCC12)c1ccccc1 (stereo not drawn) [loracarbef]	0.25
C[C@]12CCC(=O)C=C1C=C[C@@H]1[C@@H]2CC[C@@]2(C)[C@H]1CC[C@@]2(O)CCC(=O)O [canrenoate]	0.94
CCC(C)(C)NCC(O)COc1ccccc1C(=O)CCc1ccccc1 (stereo not drawn) [Diprafenone]	0.98
CCOC(=O)c1c(CSc2ccccc2)n(C)c2cc(Br)c(O)c(CN(C)C)c12 [arbidol]	0.91
OC(CNCC(O)C1CCc2cc(F)ccc2O1)C1CCc2cc(F)ccc2O1 (stereo not drawn) [nebivolol]	0.98
Cc1ncc2c(c1O)COC2c1ccc(Cl)cc1 (stereo not drawn) [cicletanine]	0.93
NCCc1ccc(O)c(O)c1 [dopamine]	0.1
CC(=O)OCC1=C(C(=O)O)N2C(=O)[C@@H](NC(=O)CC#N)[C@H]2SC1 [cephacetrile]	0.2
CC1(C)SC2C(NC(=O)C(N)c3ccc(Cl)c(Cl)c3)C(=O)N2C1C(=O)O (stereo not drawn) [penicillin29]	0.82
CN[C@H]1CC[C@@H](c2ccc(Cl)c(Cl)c2)c2ccccc21 [sertraline]	0.98
C[C@@H]1CN([C@H]2CC[C@](C#N)(c3ccc(F)cc3)CC2)CC[C@]1(C(=O)O)c1ccccc1 [levocabastine]	0.55

same assay, conditions: fraction bound to plasma protein; small molecule dataset, sheet 1-SM, Set Dtr; ref Ingle et al.; cited from earlier work

Molecule	PPB (fb)
CN(C)CCC=C1c2ccccc2COc2ccccc21 [Doxepin]	0.81
C[C@]12CCC(=O)C=C1CC[C@@H]1[C@@H]2[C@@H](O)C[C@@]2(C)[C@H]1CC[C@]2(O)C(=O)CO [Hydrocortisone]	0.8
COc1ccc2c(C(=S)N(C)CC(=O)O)cccc2c1C(F)(F)F [tolrestat]	0.99
CCOc1ccc(NC(C)=O)cc1 [Phenacetin]	0.41
CN(C)CCCN1c2ccccc2Sc2ccc(Cl)cc21 [Chlorpromazine]	0.96
NCc1ccccc1CC(=O)N[C@@H]1C(=O)N2C(C(=O)O)=C(CSc3nnnn3CC(=O)O)CS[C@H]12 [Ceforanide]	0.81
CN/C(=N/CCSCc1nc[nH]c1C)NC#N [Cimetidine]	0.2
CCCCc1nc(Cl)c(CO)n1Cc1ccc(-c2ccccc2-c2nn[nH]n2)cc1 [Losartan]	0.99
CC1(C)S[C@@H]2[C@H](NC(=O)[C@H](N)c3ccc(O)cc3)C(=O)N2[C@H]1C(=O)O [Amoxicillin]	0.17
CCN(CC)C(=O)/C(C#N)=C/c1cc(O)c(O)c([N+](=O)[O-])c1 [Entacapone]	0.98
CCCCN1CCCCC1C(=O)Nc1c(C)cccc1C (stereo not drawn) [Bupivacaine]	0.95
C[C@@H](O)[C@H]1C(=O)N2C(C(=O)O)=C(S[C@@H]3CN[C@H](C(=O)N(C)C)C3)[C@H](C)[C@H]12 [Meropenem]	0.08
CN1Cc2c(N)cccc2C(c2ccccc2)C1 (stereo not drawn) [Nomifensine]	0.63
Nc1ccn(C[C@@H](CO)OCP(=O)(O)O)c(=O)n1 [Cidofovir]	0.02
CC1(C)S[C@@H]2[C@H](NC(=O)Cc3ccccc3)C(=O)N2[C@H]1C(=O)O [Penicillin G]	0.62
Nc1nc(O)c2ncn(COC(CO)CO)c2n1 [Ganciclovir]	0.01
CNCC[C@@H](Oc1ccccc1C)c1ccccc1 [Atomoxetine]	0.97
CC(=O)NC[C@H]1CN(c2ccc(N3CCOCC3)c(F)c2)C(=O)O1 [Linezolid]	0.31
C[C@@H]1CC(=O)NN=C1c1ccc(NN=C(C#N)C#N)cc1 [Levosimendan]	0.98

same assay, conditions: fraction bound to plasma protein; small molecule dataset, sheet 1-SM; ref Ingle et al.; cited from earlier work

Molecule	PPB (fb)
O=C(OC1Cc2c(O)cc(O)cc2OC1c1cc(O)c(O)c(O)c1)c1cc(O)c(O)c(O)c1 (stereo not drawn) [Epigallocatechin gallate]	0.91
Nc1nnc(-c2cccc(Cl)c2Cl)c(N)n1 [lamotrigine]	0.55
CNCCC(Oc1ccc(C(F)(F)F)cc1)c1ccccc1 (stereo not drawn) [fluoxetine]	0.95
CS(=O)(=O)c1ccc([C@@H](O)[C@@H](CF)NC(=O)C(Cl)Cl)cc1 [florfenicol]	0.12
CC(C(=O)O)c1ccc(-c2ccccc2)c(F)c1 (stereo not drawn) [flurbiprofen]	0.99
CC(C)C(=O)Nc1ccc([N+](=O)[O-])c(C(F)(F)F)c1 [flutamide]	0.9
CCCCCNC(=N)N/N=C/c1c[nH]c2ccc(OC)cc12 [Tegaserod]	0.98
CC(Oc1ccccc1)C(=O)NC1C(=O)N2C1SC(C)(C)C2C(=O)O (stereo not drawn) [penicillin48]	0.82
OC(c1cc(C(F)(F)F)nc2c(C(F)(F)F)cccc12)C1CCCCN1 (stereo not drawn) [mefloquine]	0.97
Cc1oncc1C(=O)Nc1ccc(C(F)(F)F)cc1 [leflunomide]	0.99
CNS(=O)(=O)Cc1ccc2[nH]cc(CCN(C)C)c2c1 [Sumatriptan]	0.17
CCCc1c2oc(C(=O)O)cc(=O)c2cc2c(=O)cc(C(=O)O)n(CC)c12 [nedocromil]	0.8
OCCN1CCN(CCC=C2c3ccccc3Sc3ccc(C(F)(F)F)cc32)CC1 [flupenthixol]	0.95
NC(=O)c1ncn([C@@H]2O[C@H](CO)[C@@H](O)[C@H]2O)n1 [Ribavirin]	0.02
CC(C)Cc1ccc(C(C)C(=O)NCCOCCO)cc1 (stereo not drawn) [JMC_08]	0.83
CCCC(CC)C(CCC)C(=O)NC1C(=O)N2C1SC(C)(C)C2C(=O)O (stereo not drawn) [penicillin4]	0.93
CNC[C@H](O)c1ccc(O)c(O)c1 [epinephrine]	0.5
CCN(CC)CCOC(=O)c1ccc(N)cc1 [procaine]	0.06
CCC(CC)(CC)C(=O)NC1C(=O)N2C1SC(C)(C)C2C(=O)O (stereo not drawn) [penicillin20]	0.94
Cc1nnc(NS(=O)(=O)c2ccc(N)cc2)s1 [sulfamethizole]	0.9
CC(C)(O)C(=O)Nc1ccc([N+](=O)[O-])c(C(F)(F)F)c1 [hydroxyflutamide]	0.93
CC(NCCC(c1ccccc1)c1ccccc1)c1ccccc1 (stereo not drawn) [fendiline]	0.95
CC12CC3CC(C)(C1)CC(N)(C3)C2 [Memantine]	0.45
CSc1ccc(/C=C2/C(C)=C(CC(=O)O)c3cc(F)ccc32)cc1 [Sulindac sulfide]	0.94
O=C1[C@H](CC[C@H](O)c2ccc(F)cc2)[C@@H](c2ccc(O)cc2)N1c1ccc(F)cc1 [Ezetimibe]	0.9

same assay, conditions: human, plasma; cited from earlier work

Molecule	PPB (fb)
CCC(C)CCCCC(=O)NC(CCN)C(=O)NC(C(=O)NC(CCN)C(=O)NC1CCNC(=O)C(C(C)O)NC(=O)C(CCN)NC(=O)C(CCN)NC(=O)C(CC(C)C)NC(=O)C(Cc2ccccc2)NC(=O)C(CCN)NC1=O)C(C)O (stereo not drawn) [polymyxin-B] ({Octanoyl(6-Me)}-[Dab]T[Dab][Dab][Dab]FL[Dab][Dab]T; lactam 4-C; configuration not given here)	0.1

same assay, conditions: plasma; cited from earlier work

Molecule	PPB (fb)
Cc1ncsc1CCCl [Chlormethiazole]	0.64
COc1ccc2c3c1O[C@H]1C(=O)CC[C@@]4(O)[C@@H](C2)N(C)CC[C@]314 [Oxycodone]	0.45
CCCC(C)C1(CC)C(=O)NC(=O)NC1=O (stereo not drawn) [Pentobarbital]	0.56
CN1CCC[C@H]1c1cccnc1 [Nicotine]	0.05
Pyridostigmine	0
manidipine	0.99
nilvadipine	0.99
Clc1ccc2c(c1)C(c1ccccc1)=NCc1nncn1-2 [estazolam]	0.93
ethyl-biscoumacetate	0.9
O=C(O)CCCc1ccc(N(CCCl)CCCl)cc1 [Chlorambucil]	0.99
O=C1CN=C(c2ccccc2Cl)c2cc(Cl)ccc2N1 [Delorazepam (Chlordesmethyldiazepam)]	0.95
CCC(C)C1OC2(CCC1C)CC1CC(C/C=C(\C)C(OC3CC(OC)C(OC4CC(OC)C(O)C(C)O4)C(C)O3)C(C)/C=C/C=C3\COC4C(O)C(C)=CC(C(=O)O1)C34O)O2 (stereo not drawn) [ivermectin]	0.93
CC(C)=CCN1CCC2(C)c3cc(O)ccc3CC1C2C (stereo not drawn) [Pentazocine]	0.61
CN1C(=O)CN=C(C2=CCCCC2)c2cc(Cl)ccc21 [tetrazepam]	0.7
Fluorescein	0.87
CCC1(c2ccccc2)C(=O)NC(=O)NC1=O [Phenobarbital]	0.43
CCN(CC)C(=O)[C@@H]1C=C2c3cccc4[nH]cc(c34)C[C@H]2N(C)C1 [lysergide]	0.9
COc1ccc(CC(C)NCC(O)c2ccc(O)c(NC=O)c2)cc1 (stereo not drawn) [formoterol]	0.62
mepacrine	0.9
CC1(C)SC2C(NC(=O)Cc3cccs3)C(=O)N2C1C(=O)O (stereo not drawn) [penicillin71]	0.58
Oc1ccc2c(c1)[C@@]13CCCC[C@@]1(O)[C@@H](C2)N(CC1CCC1)CC3 [Butorphanol]	0.81
OC(O)C(Cl)(Cl)Cl [chloral-hydrate]	0.35
quinagolide	0.9
nitazoxanide	0.99
Nisoldipine	1
